Results taken from ChEMBL document CHEMBL3301361, “Experimental in vitro DMPK and physicochemical data on a set of publicly disclosed compounds”.
Values after ≈ are worked out from the molar mass of the structure shown.

Legend:
physchem [1] = assay: physchem
in vitro [2] = details: SD, HW or BN, rat, plasma
in vitro [3] = details: human
in vitro [4] = details: hepatocytes
physchem [5] = assay: physchem; remark: listed apart in the source
physchem [6] = details: octan-1-ol/water, pH 7.4, LogD7.4
in vitro [7] = details: human, plasma, PPB
physchem [8] = details: pH 7.4 buffer

Row | Compound | pKa (physchem [1]) | fraction unbound at 5 h (in vitro [2]) | microsomal CLint (in vitro [3]; microsomes) [µL/min/mg] | hepatocyte CLint (in vitro [4]) [µL/min/1e6 cells] | pKa (physchem [5]) | microsomal CLint (in vitro [3]; liver microsomes) [µL/min/mg] | logD (physchem [6]) | fraction unbound at 5 h (in vitro [7]) | solubility thermodynamic (physchem [8]) [µM]
1 | Cc1nn(-c2ccccc2)c(NC(=O)NS(=O)(=O)c2ccc(Cl)cc2)c1C#N | 2.3 | 0.0175 | < 3 | 21.5 |  |  |  |  | 
2 | OCc1ccnc2c(O)cccc12 | 9.45 |  |  |  | 4.64 |  |  |  | 
3 | CCC(=O)NC(c1cccs1)c1cc(Cl)c2cccnc2c1O (configuration not stated) | 8.19 |  | 21.4 |  | 2.5 |  |  |  | 
4 | CN(C)C1CCc2c(ccc(O)c2O)C1 (configuration not stated) | 8.85 |  |  |  | 10.5 |  |  |  | 
5 | CC1=C(CC(=O)O)c2cc(F)ccc2/C1=C\c1ccc([S+](C)[O-])cc1 (configuration not stated) | 3.9 |  |  |  |  | < 3 | -0.01 |  | 
6 | NC1CCc2c(ccc(O)c2O)C1 (configuration not stated) | 8.9 |  |  |  | 10.5 |  |  |  | 
7 | O=C(O)COc1ccc(Cl)cc1CN1CCCN(S(=O)(=O)Cc2ccccc2)CC1 | 3.4 |  |  |  | 8.3 |  |  | 0.157 | 
8 | CCS(=O)(=O)c1ccc(-c2cc(C(F)(F)F)ccc2OCC(=O)O)c(Cl)c1 | 3.3 | 0.0313 |  |  |  | < 3 |  |  | 
9 | CCS(=O)(=O)c1ccc(-c2cc(C(F)(F)F)ccc2CCC(=O)O)c(C)c1 | 4.2 |  |  |  |  | < 3 |  | 0.0256 | 
10 | N#Cc1cn(Cc2ccco2)c(=O)[nH]c1=O | 6.1 |  |  |  |  | < 3 |  |  | 
11 | CCC(CC)NC(=O)c1nnn(-c2ccccc2)c1NS(=O)(=O)c1ccc(C)cc1 | 3.3 |  |  | 56 |  | 35 | 0.46 | 0.0072 | 
12 | CCC(CC)NC(=O)c1cn(-c2ccccc2)nc1NS(=O)(=O)c1ccc(C)cc1 | 5.3 | 0.0033 |  | 7 |  | 9 | 2.51 | 0.0013 | 174 (≈ 74.1 µg/mL)
13 | Cc1ccc(S(=O)(=O)Nc2c(C(=O)N[C@@H](C)C(C)(C)C)c(C(F)(F)F)nn2-c2ccccc2)cc1 | 3.8 | 0.0097 |  | 18.8 |  | 120 |  | 0.0043 | 
14 | Cc1ccc2c(c1)c(Sc1ccc(Cl)cc1)c(C)n2CC(=O)O | 4.1 |  |  |  |  | 7 | 2.18 |  | 
15 | CCC(CC)NC(=O)c1c(C)nn(C(C)C)c1NS(=O)(=O)c1ccc(C)cc1 | 4.7 | 0.089 |  |  |  |  | 0.92 | 0.035 | 
16 | Cc1ccc(S(=O)(=O)Nc2c(C(=O)N[C@@H](C)C(C)(C)C)c(C)nn2C(C)(C)C)cc1 | 5.5 |  | 37 |  |  |  | 1.84 |  | 513 (≈ 223 µg/mL)

Row | Compound | pKa (physchem [1]) | fraction unbound at 5 h (in vitro [2]) | microsomal CLint (in vitro [3]; microsomes) [µL/min/mg] | hepatocyte CLint (in vitro [4]) [µL/min/1e6 cells] | pKa (physchem [5]) | microsomal CLint (in vitro [3]; liver microsomes) [µL/min/mg] | logD (physchem [6]) | fraction unbound at 5 h (in vitro [7]) | solubility thermodynamic (physchem [8]) [µM]
17 | CCC(CC)n1nc(C)c(C(=O)N[C@@H](C)C(C)(C)C)c1NS(=O)(=O)c1ccc(C)cc1 | 4.6 | 0.0818 |  |  |  |  | 1.88 | 0.02 | 
18 | COc1nc(Cl)c(Cl)nc1NS(=O)(=O)c1ccc(Cl)s1 | 3.6 |  |  |  |  | 10 |  | 0.0008 | 
19 | O=C(Nc1ccc(N2CCOCC2)c(F)c1)c1nnc(Nc2ccccc2F)o1 | 8.61 |  |  |  | 6.17 |  | 3.6 |  | 1.3 (≈ 0.522 µg/mL)
20 | COCCNc1nc(N)c2nc(O)n(Cc3ccccc3)c2n1 | 10 |  |  |  |  | 5.5 | 2.18 | 0.208 | 
21 | Cc1ccc2c(c1)c(-c1ccnc3c(C(F)(F)F)cccc13)c(C)n2CC(=O)O | 2.4 |  |  |  | 3.5 |  | 1.27 | 0.0038 | 
22 | O=C(O)c1cccc(N2CCC(CN3CCC(Oc4ccc(Cl)c(Cl)c4)CC3)CC2)c1 | 4.3 |  |  |  | 8.7 | 6 |  |  | 141 (≈ 65.5 µg/mL)
23 | O=C(O)c1ccc(N2CCC(CN3CCC(Oc4ccc(Cl)c(Cl)c4)CC3)CC2)cc1 | 4.55 |  |  |  | 8.85 |  |  |  | 
24 | O=C(O)Cc1cccc(N2CCC(CN3CCC(Oc4ccc(Cl)c(Cl)c4)CC3)CC2)c1 | 4.4 |  |  |  | 8.9 |  |  |  | 
25 | O=C(O)c1ccc(CN2CCC(CN3CCC(Oc4ccc(Cl)c(Cl)c4)CC3)CC2)cc1 | 3.5 |  |  |  |  | < 3 |  |  | 
26 | O=C(NS(=O)(=O)N1CCC(N2CCC(Oc3ccc(Cl)c(Cl)c3)CC2)CC1)c1ccccc1 | 4.3 |  |  |  | 8.1 |  | 2.14 |  | 
27 | CN(C)c1ccc(S(=O)(=O)NC(=O)N2CCC(N3CCC(Oc4ccc(Cl)c(Cl)c4)CC3)CC2)cc1 | 6.1 |  |  |  |  | 10.5 | 1.7 | 0.0017 | 
28 | O=C(NC[C@@H](O)CN1CCC(Oc2ccc(Cl)c(Cl)c2)CC1)c1c[nH]c(=O)cc1C(F)(F)F | 8.3 |  |  |  | 7.7 | 6 | 2.71 |  | 
29 | Cc1cc(Cl)ccc1OC1CCN(C[C@H](O)CNC(=O)c2c[nH]c(=O)cc2C(F)(F)F)CC1 | 8.6 |  |  |  | 7.5 | < 3 | 2.37 |  | 
30 | N#Cc1ccc2[nH]c(-c3ccc(F)cc3)c(CCCC(=O)NS(N)(=O)=O)c2c1 | 5.9 |  |  | 19.6 |  | < 3 | 1.95 | 0.0146 | 26.9 (≈ 10.8 µg/mL)
31 | NC1CCc2cc(O)c(O)cc2C1 (configuration not stated) | 9.1 |  |  |  | 10.5 |  |  |  | 
